Key:
[1] = Weight gain of carriers on bubbling nitric oxide gas; format: physicochemical; details: NO gas bubbled 40 hr, 25 °C
Experimental: This example illustrates one technique for preparing a composition in accordance with one embodiment of the invention. An accurate amount of a carrier (HNC 167-62) (see below) was introduced into a system. The carrier weight used in these experiments was approximately 250 g and the vessel size was 500 ml. The vessel was equipped with a mechanical stirrer, gas inlet, and gas outlet and was previously purged with argon for about an hour. The temperature of the carrier was kept at about 25-30° C. NO gas regulated at 5 psi (1 psi is about 6,900 Pa) and was then introduced at a controlled rate of about 1 bubble/s with continuous stirring. […] After 6 hours, the weight of the carrier had increased by 0.15%, by 12 hours by 0.25%, and by 24 hours by 0.56%. These increases in weight were believed to be significant considering the relative small molecular weight of NO versus the carrier. […] The carrier also can solidify upon cooling if the carrier is initially a solid at lower temperature.
Each carrier was taken in a 500 mL three necked flask equipped with a mechanical stirrer, gas inlet and a gas outlet. The system was purged with argon for one hour at room temperature (25° C.). Then nitric oxide gas was bubbled into the system. Then, nitric oxide gas was bubbled through carrier for stipulated amount of time. The changes in weight and color were noted. […]

[2] = system: micro-capillary blood flow to skin; assay: Laser Doppler study with closed Hilltop chamber on forearm, 10,000 ppm NO (Example 5); format: in vivo, human; details: applied to the skin at 1/10% in alcohol
Description: The formulation used in these studies contained nitric oxide dispersed in a lipid matrix. […] Nitric oxide is a very rapid acting molecule, and these studies used a system that employed laser Doppler with a covered chamber. The formulation was placed into the chamber and then attached to the skin by an adhesive layer on the covering. This provided a stable measuring device as determined by multiple normal evaluations of the capillary blood flow without treatment of nitric oxide.
A known positive control, methyl nicotinate, was applied to the skin at a concentration of 1/10% in alcohol. […] The vascular dynamics are such that when the blood vessels dilate physical parameters follow Bernoulli's law. […] The laser Doppler device accurately measured these parameters.
In these studies, the participants were healthy females aged 30 to 55 years. They were in good health as determined by the medical history and were not taking any prescription medications. All study participants read and signed the informed consent statement prior to any study procedures being performed. […]
A Moor Instruments DRT4 Laser Doppler Blood Flow Monitor (Devon, England) was used in these studies. The laser Doppler technique measured blood flow in the microcapillaries of the skin that are close to the skin surface and the blood flow in underlying arterioles and venules that help to regulate skin temperature. […]

[3] = system: capillary circulation of the skin; assay: Laser Doppler study of creams in five human subjects (Example 7); format: in vivo; details: positive control formulation containing 0.1% methyl nicotinate
Description: This example illustrates delivery of nitric oxide formulations to five human subjects, using procedures and formulations similar to those discussed in Example 5. Each person served as their own control for the testing. A Moor Instruments Laser Doppler was used to determine circulation. […] The formulations used produce positive, almost immediate results when applied to the skin which, in these studies, was manifested by vasodilatation of the cutaneous vascular system. For each subject, the following creams were applied: a negative control formulation (containing no NO), 0.010 gram of a 10,000 ppm NO formulation, 0.020 gram of a 10,000 ppm NO formulation, and a positive control formulation containing 0.1% methyl nicotinate. The formulations were prepared using procedures similar to those discussed in Example 1.

SMILES | % Wt. gain [1] [%] | Wt. Gain [1] [g] | laser Doppler response of positive control [2] | vasodilatation [3]
OCCCO [1,3-Propanediol, 1,3-propanediol] | 0.09 | 0.16 | – | –
COC(=O)c1cccnc1 [methyl nicotinate] | – | – | rapid response typical of the vasodilator | vasodilatation was observed

From patent US9968635B2, “Treatment of skin and soft tissue infection with nitric oxide” (priority 2012, dated 2018)
